Source: article PMC8387526, “Small peptide-based GLP-1R ligands: an approach to reduce the kidney uptake of radiolabeled GLP-1R-targeting agents?” (EJNMMI Radiopharmacy and Chemistry, 2021)
“Also recorded” adds a separate entry of the source. One block for each compound: values may come before it. Square brackets hold non-standard residues; d marks the D form. Peptide text beside a SMILES is read from it. * marks the point of attachment. Benzoyl(4-SiFtBu2) = CC(C)(C)[Si](F)(c1ccc(C(=O)*)cc1)C(C)(C)C; αMePhe(2-F) = C[C@](N)(Cc1ccccc1F)C(=O)O; hPhe = N[C@@H](CCc1ccccc1)C(=O)O; Dap = NC[C@H](N)C(=O)O; Aib = CC(C)(N)C(=O)O

How the values were obtained:
[1] = molecular target: T1, human GLP-1 receptor (Homo sapiens, UniProt P43220); experiment: Competitive binding (IC50) on HEK293-hGLP-1R cells with radioligand [Nle^14, [^125I]Tyr(3-I)^40]exendin-4; set-up: Dr. Timothy Kieffer (University of British Columbia); host or cells: HEK293; conditions: for IC50 ± SD (result in words): ligand range 10^-11 to 10^-5 M
T1 sequence (P43220 24-463): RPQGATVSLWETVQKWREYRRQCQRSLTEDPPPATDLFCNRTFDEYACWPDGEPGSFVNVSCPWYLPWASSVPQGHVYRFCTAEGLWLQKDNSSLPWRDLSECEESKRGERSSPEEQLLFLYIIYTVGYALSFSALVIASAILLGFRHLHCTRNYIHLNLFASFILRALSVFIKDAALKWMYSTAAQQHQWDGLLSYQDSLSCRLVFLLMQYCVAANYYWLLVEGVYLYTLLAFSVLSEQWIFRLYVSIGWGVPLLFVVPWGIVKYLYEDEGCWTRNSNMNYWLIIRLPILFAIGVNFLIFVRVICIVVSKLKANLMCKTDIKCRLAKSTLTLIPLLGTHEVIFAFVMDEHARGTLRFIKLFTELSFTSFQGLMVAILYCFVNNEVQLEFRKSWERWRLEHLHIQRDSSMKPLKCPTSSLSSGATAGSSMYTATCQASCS
Method: Dr. Timothy Kieffer (University of British Columbia, Vancouver, Canada). Cells were cultivated in high glucose DMEM (25.0 mM D-glucose, 3.97 mM GlutaMAX; REF-number: 61965–026; Fisher Scientific GmbH, Schwerte, Germany) supplemented with 10% fetal bovine serum and 1 mM sodium pyruvate. Medium for stably transfected HEK293-hGLP-1R cells was constantly supplemented with 1 mg/mL Geneticin (G-418 Biochrom, Merck KgaA, Darmstadt, Germany) as selection antibiotic. The cell line was kept at 37 °C in a humidified 5% CO2 atmosphere. One day (24 ± 2 h) prior to all in vitro experiments, the cultivated HEK293-h-GLP-1R cells were harvested using a mixture of trypsin/ethylenediaminetetraacetic acid (0.05%/0.02%) in phosphate-buffered saline (PBS) (Gibco, Germany) and centrifuged at 1300 rpm (ca. 190×g) for 3 min at room temperature (Heraeus Megafuge 16, Thermo Fisher, Germany). After centrifugation, the supernatant was disposed and the cell pellet was resuspended in culture medium. Cells were counted with a Neubauer hemocytometer (Paul Marienfeld GmbH & Co. KG, Lauda-Königshofen, Germany) and seeded in 24-well plates. IC50 values were determined by transferring 1.50 × 10^5 cells/mL per well into 24-well plates.
Detailed information on affinity experiments is provided in the SI. In brief, competitive binding studies were determined on HEK293-hGLP-1R cells (1.50 × 10^5 cells in 1 mL/well) after incubation at 4 °C for 2 hours, using [^125I]Tyr(3-I)^40–3 (0.41 nM/well) as reference radioligand (n = 3).
Dr. Timothy J. Kieffer (University of British Columbia, Vancouver, Canada). Cells were cultivated in high glucose DMEM (25.0 mM D-glucose, 3.97 mM GlutaMAX; REF-number: 61965-026; Fisher Scientific GmbH, Schwerte, Germany) supplemented with 10% fetal bovine serum and 1 mM sodium pyruvate. Medium for stably transfected HEK293-hGLP-1R cells was constantly supplemented with 1 mg/mL Geneticin (G-418 Biochrom, Merck KgaA, Darmstadt, Germany) as selection antibiotic. The cell line was kept at 37 °C in a humidified 5% CO2 atmosphere. One day (24 ± 2 h) prior to all in vitro experiments, the cultivated cells were harvested using a mixture of trypsin/ethylenediaminetetraacetic acid (0.05%/0.02%) in phosphate-buffered saline (PBS) (Merck KgaA, Darmstadt, Germany) and centrifuged at 1300 rpm (ca. 190 × g) for 3 min at room temperature (Heraeus Megafuge 16, Thermo Fisher Scientific, Darmstadt, Germany). After centrifugation, the supernatant was disposed and the cell pellet was resuspended in culture medium. Cells were counted with a Neubauer hemocytometer (Paul Marienfeld GmbH & Co. KG, Lauda-Königshofen, Germany) and seeded in 24-well plates (Greiner Bio-One, Kremsmünster, Austria). IC50 values were determined by transferring 1.50 × 10^5 cells/mL per well into 24-well plates (Greiner Bio-One, Kremsmünster, Austria).
The culture medium was removed and the cells were washed with 500 µL of Hank’s balanced salt solution (HBSS) (Merck KGaA, Darmstadt, Germany), containing 1% bovine serum albumin (BSA) (Merck KGaA, Darmstadt, Germany). Afterwards, 200 µL of HBSS (1% BSA) were added to each well and equilibrated on ice (4 °C) for 15 min. 25 µL/well of either HBSS (1% BSA) (= control) or of solutions, containing the respective unlabeled ligand in increasing concentrations (10^-10 - 10^-4 M in HBSS) were added, followed by the addition of 25 µL of [Nle^14, [^125I]Tyr(3-I)^40]exendin-4 in HBSS (1% BSA) to each well. Experiments were carried out in triplicates for each concentration. The final concentrations of unlabeled ligand ranged from 10^-11 - 10^-5 M and the final radioligand concentration was 0.41 nM in all binding assays. The cells were incubated for two hours at 4 °C. Incubation was terminated by removal of the incubation medium. The cells were washed with 250 µL of HBSS (1% BSA) and the wash medium was combined with the respective supernatant. This fraction represents the amount of free radioligand. The cells were lysed by addition of 250 µL of 1 M aqueous NaOH. […]

[2] = molecular target: T1, human GLP-1 receptor; experiment: as above; set-up: Dr. Timothy Kieffer (University of British Columbia); host or cells: HEK293; conditions: w/o BSA, HBSS
[3] = set-up: method as in Gotthardt et al., 2007; conditions: rats, pre-administration; ref Gotthardt et al., 2007; cited from earlier work
[4] = Stability study of the reference radioligand stock solution (RCP by radio-RP-HPLC); type: physicochemical
Method: ^125I-labeling. The radioiodinated reference ligand [Nle^14, [^125I]Tyr(3-I)^40]exendin-4 ([^125I]Tyr(3-I)^40–3) was prepared via the Iodogen method (Salacinski et al., [1981]), with some minor modifications. […] The solution was transferred to a vial, which has been precoated with 15.0 μg Iodogen (34.7 nmol, 139 eq.). Afterwards, 15 ± 5 MBq [^125I] NaI (74 MBq/nmol, 3.7 GBq/mL in 40 mM NaOH, Hartmann Analytic, Braunschweig, Germany) (5.00 μL, 250 pmol, 1.00 eq.) were added, the reaction solution was incubated for 15 min at r.t. and 150 μL thereof were purified by radio-RP-HPLC (0% B (2 min) ➔ 0–37.5% B (3 min) ➔ 37.5% B (35 min) ➔ 38% B (10 min), Method A*, 1 mL/min) to afford 3.15 MBq (48.8% RCY, > 99% RCP) of product [^125I]Tyr(3-I)^40–3. The radioligand was stored in the HPLC solvent (stock solution) at − 80 °C until further use. The radioligand stock solution was used to a maximum of 14 days to ensure a RCP of > 92% (Table 1 in the Additional file 1) and replaced by freshly prepared radioligand afterwards. Prior to the in vitro experiments, the radioligand was dissolved in HBSS (with or w/o 1% BSA) to achieve a final concentration of 0.41 nM in the respective assays. *Method A: solvent A = water + 0.1% TFA, solvent B = acetonitrile + 2% water + 0.1% TFA.
Table 1: Stability study of reference radioligand [^125I]Tyr(3-I)^40]-3, (n = 1).

Compound: C[C@@H](O)[C@H](NC(=O)CNC(=O)[C@H](CCC(=O)O)NC(=O)C(C)(C)NC(=O)[C@@H](N)Cc1c[nH]cn1)C(=O)N[C@@](C)(Cc1ccccc1F)C(=O)N[C@H](C(=O)N[C@@H](CO)C(=O)N[C@@H](CC(=O)O)C(=O)N[C@@H](CNC(=O)c1ccc([Si](F)(C(C)(C)C)C(C)(C)C)cc1)C(=O)N[C@@H](CCc1ccccc1)C(N)=O)[C@@H](C)O [Peptide 5, H-L-His-Aib-L-Glu-Gly-L-Thr-L-(α-Me)Phe(2-F)-L-Thr-L-Ser-L-Asp-L-Dap(SiFA)-L-homoPhe-NH2]
IC50 [1]: 0.189 ± 0.035 µM
IC50 ± SD (result in words) ([1]; w/ BSA (1% BSA)): no detectable affinity
maximal radioligand displacement (of maximal radioligand binding) [2]: 61–69%

Compound: CC(C)C[C@H](NC(=O)[C@H](CNC(=O)c1ccc([Si](F)(C(C)(C)C)C(C)(C)C)cc1)NC(=O)[C@H](CO)NC(=O)[C@H](CO)NC(=O)[C@@H](NC(=O)[C@H](CC(=O)O)NC(=O)[C@H](CO)NC(=O)[C@@H](NC(=O)[C@](C)(Cc1ccccc1F)NC(=O)[C@@H](NC(=O)CNC(=O)[C@H](CCC(=O)O)NC(=O)C(C)(C)NC(=O)[C@@H](N)Cc1c[nH]cn1)[C@@H](C)O)[C@@H](C)O)C(C)C)C(=O)N[C@@H](CCC(=O)O)C(N)=O [Peptide 10, H-L-His-Aib-L-Glu-Gly-L-Thr-L-(α-Me)Phe(2-F)-L-Thr-L-Ser-L-Asp-L-Val-L-Ser-L-Ser-L-Dap(SiFA)- L-Leu-L-Glu-NH2] (H-H[Aib]EGT[αMePhe(2-F)]TSDVSS[Dap](Benzoyl(4-SiFtBu2))LE-NH2)
IC50 [1]: 2.95 ± 0.31 µM

Compound: H-L-His-Aib-L-Glu-Gly-L-Thr-L-(α-Me)Phe(2-F)-L-Thr-L-Ser-L-Asp-NH2 [Peptide 7]
IC50 ± SD (result in words) ([1]; w/ and w/o BSA): no detectable affinity n = 2 (w/ and w/o BSA)

Compound: CC(C)C[C@H](NC(=O)[C@H](CNC(=O)c1ccc([Si](F)(C(C)(C)C)C(C)(C)C)cc1)NC(=O)[C@H](CO)NC(=O)[C@H](CCc1ccccc1)NC(=O)[C@@H](NC(=O)[C@H](CC(=O)O)NC(=O)[C@H](CO)NC(=O)[C@@H](NC(=O)[C@](C)(Cc1ccccc1F)NC(=O)[C@@H](NC(=O)CNC(=O)[C@H](CCC(=O)O)NC(=O)C(C)(C)NC(=O)[C@@H](N)Cc1c[nH]cn1)[C@@H](C)O)[C@@H](C)O)C(C)C)C(=O)N[C@@H](CCC(=O)O)C(N)=O [Peptide 11, H-L-His-Aib-L-Glu-Gly-L-Thr-L-(α-Me)Phe(2-F)-L-Thr-L-Ser-L-Asp-L-Val-L-homoPhe-L-Ser-L-Dap(SiFA)-L-Leu-L-Glu-NH2] (H-H[Aib]EGT[αMePhe(2-F)]TSDV[hPhe]S[Dap](Benzoyl(4-SiFtBu2))LE-NH2)
IC50 [1]: 7.12 ± 2.47 µM

Compound: NCCCC[C@H](N)C(=O)O [L-lysine]
decrease of kidney uptake of [^111In]In-DTPA-exendin-4 [3]: did not show any effect

Compound: H-L-His-Aib-L-Glu-Gly-L-Thr-L-(α-Me)Phe(2-F)-L-Thr-L-Ser-L-Asp-O2Oc-L/D-Dap(SiFA)-L-Leu-L-Glu-NH2 [Peptide 13]
IC50 ± SD (result in words) ([1]; w/ and w/o BSA): no radioligand displacement was observed; also recorded: no detectable affinity n = 2 (w/ and w/o BSA)

Compound: H-L-His-Aib-L-Glu-Gly-L-Thr-L-(α-Me)Phe(2-F)-L-Thr-L-Ser-L-Asp-L-Val-L-Dap(SiFA)-NH2 [Peptide 9]
IC50 ± SD (result in words) ([1]; w/ and w/o BSA): no affinity was detected; also recorded: no detectable affinity n = 2 (w/ and w/o BSA)

IC50 ± SD (result in words) ([1]; w/ BSA (1% BSA)): no detectable affinity n = 1 (w/ BSA)
Compound: H-L-His-Aib-L-Glu-Gly-L-Thr-L-(α-Me)Phe-L-Thr-L-Ser-L-Asp-OH [Peptide 6]

Compound: H-L-His-Aib-L-Glu-Gly-L-Thr-L-(α-Me)Phe-L-Thr-L-Ser-L-Asp-L-Phe(4-I)-L-homoPhe-NH2 [Peptide 8]
IC50 ± SD (result in words) ([1]; w/ and w/o BSA): eliminated any detectable affinity; also recorded: no detectable affinity n = 2 (w/ and w/o BSA)

Compound: C[C@@H](O)[C@H](NC(=O)CNC(=O)[C@H](CCC(=O)O)NC(=O)C(C)(C)NC(=O)[C@@H](N)Cc1c[nH]cn1)C(=O)N[C@@](C)(Cc1ccccc1)C(=O)N[C@H](C(=O)N[C@@H](CO)C(=O)N[C@@H](CC(=O)O)C(=O)N[C@@H](CNC(=O)c1ccc([Si](F)(C(C)(C)C)C(C)(C)C)cc1)C(=O)N[C@@H](CCc1ccccc1)C(N)=O)[C@@H](C)O [Peptide 4, H-L-His-Aib-L-Glu-Gly-L-Thr-L-(α-Me)Phe-L-Thr-L-Ser-L-Asp-L-Dap(SiFA)-L-homoPhe-NH2]
IC50 [1]: 2.4 µM
IC50 ± SD (result in words) ([1]; w/ BSA (1% BSA)): no detectable affinity
maximal radioligand displacement (of maximal radioligand binding) [2]: 61–69%

RCP ([4]; 0 days after radioiodination, stock in HPLC solvent at −80 °C, n = 4): ≥ 95% (n = 4)
RCP ([4]; 4 days after radioiodination, stock in HPLC solvent at −80 °C): 95%
RCP ([4]; 9 days after radioiodination, stock in HPLC solvent at −80 °C): 95%
RCP ([4]; 16 days after radioiodination, stock in HPLC solvent at −80 °C): 92%
RCP ([4]; 20 days after radioiodination, stock in HPLC solvent at −80 °C): 82%
RCP ([4]; 24 days after radioiodination, stock in HPLC solvent at −80 °C): 82%
RCP ([4]; 29 days after radioiodination, stock in HPLC solvent at −80 °C): 78%
RCP ([4]; 36 days after radioiodination, stock in HPLC solvent at −80 °C): 78%
RCP ([4]; stock solution used to a maximum of 14 days, −80 °C): > 92%
Compound: [Nle^14, [^125I]Tyr(3-I)^40]exendin-4 [[^125I]Tyr(3-I)^40-3]
